pIC50: −log10 of the molar value. Calls of active or inactive are those of the source. No rule for the calls is given here.
How the values were obtained:
Test in all cases: CXCR6 receptor antagonists, dose response, cell-based, beta-arrestin, DiscoveRx, APJ panel, uHTS hits (AID 624129)
[1] = target: Apelin receptor (Homo sapiens) (UniProt P35414); conditions: CXCR6 beta-arrestin (DiscoveRx) antagonist cell assay, APJ
[2] = target: Beta-galactosidase (Escherichia coli) (UniProt Q8VNN2); conditions: CXCR6 beta-arrestin (DiscoveRx) antagonist cell assay, b-galactosidase; for IC50: dose range 1; for pIC50: dose range 1, mean IC50 across replicates
Sequence of Beta-galactosidase (Escherichia coli) (Q8VNN2 whole entry, looked up): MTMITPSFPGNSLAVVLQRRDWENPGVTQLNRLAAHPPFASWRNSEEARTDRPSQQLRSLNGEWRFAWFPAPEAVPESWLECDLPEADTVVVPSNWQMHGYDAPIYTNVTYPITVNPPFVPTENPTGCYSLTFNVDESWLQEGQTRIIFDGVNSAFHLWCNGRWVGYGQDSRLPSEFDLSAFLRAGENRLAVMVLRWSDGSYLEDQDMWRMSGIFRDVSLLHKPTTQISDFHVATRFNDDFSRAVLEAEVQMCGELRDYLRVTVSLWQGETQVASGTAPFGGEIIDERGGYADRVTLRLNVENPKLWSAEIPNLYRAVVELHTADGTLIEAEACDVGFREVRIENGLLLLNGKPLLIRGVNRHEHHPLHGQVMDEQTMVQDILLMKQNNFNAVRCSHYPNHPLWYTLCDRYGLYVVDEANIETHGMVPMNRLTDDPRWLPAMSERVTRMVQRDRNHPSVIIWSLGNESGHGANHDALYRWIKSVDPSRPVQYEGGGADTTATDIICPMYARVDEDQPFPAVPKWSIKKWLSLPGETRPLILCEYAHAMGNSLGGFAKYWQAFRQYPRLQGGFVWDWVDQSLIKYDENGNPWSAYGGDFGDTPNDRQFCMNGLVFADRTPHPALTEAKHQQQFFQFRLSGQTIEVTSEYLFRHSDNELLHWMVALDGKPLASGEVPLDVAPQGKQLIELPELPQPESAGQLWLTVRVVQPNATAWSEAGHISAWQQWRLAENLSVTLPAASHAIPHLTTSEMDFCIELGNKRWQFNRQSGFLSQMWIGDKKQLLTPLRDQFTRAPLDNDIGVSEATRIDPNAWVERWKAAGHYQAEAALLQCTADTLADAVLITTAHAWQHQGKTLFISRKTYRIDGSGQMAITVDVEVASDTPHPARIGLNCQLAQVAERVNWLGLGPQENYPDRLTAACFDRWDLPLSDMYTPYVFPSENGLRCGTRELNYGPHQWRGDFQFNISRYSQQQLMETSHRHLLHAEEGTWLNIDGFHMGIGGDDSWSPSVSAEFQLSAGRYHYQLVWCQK

[3] = target: C-C chemokine receptor type 6 (Homo sapiens) (UniProt P51684); conditions: CXCR6 beta-arrestin (DiscoveRx) antagonist cell assay
[4] = target: C-X-C chemokine receptor type 6 (Homo sapiens) (UniProt O00574); conditions: CXCR6 beta-arrestin (DiscoveRx) antagonist cell assay
Sequence of C-X-C chemokine receptor type 6 (Homo sapiens) (O00574 whole entry, looked up): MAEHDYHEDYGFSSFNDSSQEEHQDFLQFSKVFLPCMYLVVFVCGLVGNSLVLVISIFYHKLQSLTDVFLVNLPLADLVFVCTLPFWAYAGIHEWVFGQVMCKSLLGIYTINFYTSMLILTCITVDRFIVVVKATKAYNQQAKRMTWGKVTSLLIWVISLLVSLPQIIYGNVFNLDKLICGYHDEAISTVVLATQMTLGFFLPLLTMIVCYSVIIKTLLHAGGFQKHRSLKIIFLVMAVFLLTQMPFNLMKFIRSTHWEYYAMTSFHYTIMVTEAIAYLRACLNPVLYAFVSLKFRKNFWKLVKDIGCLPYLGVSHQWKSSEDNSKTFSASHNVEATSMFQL

[5] = dose range 1, mean IC50 across replicates
[6] = CCR6, dose range 1, mean IC50 across replicates
[7] = CXCR6, dose range 1, mean IC50 across replicates
[8] = CXCR6, run 1, dose range 2, at 80 µM (top of the series)

SMILES | pIC50 ([1]; dose range 1) | pIC50 [1, 5] | pIC50 ([1]; run 2, dose range 1) | pIC50 ([1]; run 3, dose range 1) | IC50 [2] | pIC50 [2] | pIC50 ([3]; CCR6, dose range 1) | pIC50 [3, 6] | pIC50 ([3]; CCR6, run 2, dose range 1) | pIC50 ([4]; CXCR6, dose range 1) | pIC50 [4, 7] | pIC50 ([4]; CXCR6, run 1, dose range 2) | pIC50 ([4]; CXCR6, run 2, dose range 1) | pIC50 ([4]; CXCR6, run 2, dose range 2) | IC50 ([1]; dose range 1) | IC50 ([3]; CCR6, dose range 1) | IC50 ([4]; CXCR6, dose range 1) | inhibition [4, 8] | inhibition ([4]; CXCR6, run 1, dose range 2, at 20 µM (top of the series))
CCc1cc2c(=O)[nH]c(-c3ccccn3)nc2s1 | 5.75 | 5.69 | 5.66 | 5.67 | > 80 µM (inactive) | < 4.10 | 5.76 | 5.61 | 5.51 | 5.58 | 5.75 | 5.85 | 5.76 | 5.89 |  |  |  |  | 
COc1cc(C(=O)NC2CC3CCCC(C2)N3CC(=O)Nc2ccccc2)cc(OC)c1OC (stereo not given) |  | < 4.10 | < 4.10 | < 4.10 | > 80 µM (inactive) | < 4.10 |  | < 4.10 | < 4.10 | 4.87 | 4.97 | 4.91 | 4.97 | 5.22 | > 80 µM (inactive) | > 80 µM (inactive) |  |  | 
O=[N+]([O-])c1ccc(S(=O)(=O)c2ccccc2)nc1 |  | < 4.10 | < 4.10 | < 4.10 | > 80 µM (inactive) | < 4.10 |  | < 4.10 | < 4.10 |  | < 4.10 |  | < 4.10 |  |  |  | > 80 µM (inactive) | 19.8% | 
Cc1ccc(S(=O)(=O)c2ccc([N+](=O)[O-])o2)cc1 | 5.01 | 4.96 | < 4.10 | 4.93 | > 80 µM (inactive) | < 4.10 |  | 5.08 | 5.08 |  | 4.93 |  | < 4.10 |  |  |  | inactive |  | 77.6%
O=C(CSc1cccc2cccnc12)N1CCCC1 | 5.34 | 5.27 | 5.21 | 5.28 | > 80 µM (inactive) | < 4.10 | 5.37 | 5.28 | 5.20 | 4.97 | 5.21 | 5.39 | 5.20 | 5.44 |  |  |  |  | 
Cc1nnc(Sc2cc(NCCCO)c([N+](=O)[O-])c3nonc23)s1 | 4.89 | 4.94 | 4.95 | 4.98 | > 80 µM (inactive) | < 4.10 | 5.05 | 5.09 | 5.13 | 5.14 | 5.11 | 5.08 | 5.02 | 5.21 |  |  |  |  | 
C=C1C(=O)O[C@@H]2C[C@@H](C)[C@@H]3C=CC(=O)[C@@]3(C)[C@@H](OC(=O)CC(=O)O[C@H]3[C@@H]4C(=C)C(=O)O[C@@H]4C[C@@H](C)[C@@H]4C=CC(=O)[C@]43C)[C@H]12 | 5.34 | 5.30 | 5.28 | 5.30 | > 80 µM (inactive) | < 4.10 | 5.51 | 5.47 | 5.44 | 5.33 | 5.40 | 5.42 | 5.40 | 5.48 |  |  |  |  | 
C=C1CC(COc2ccc3c(C)c(Cl)c(=O)oc3c2)(c2ccccc2)OC1=O (stereo not given) |  | 4.45 | 4.27 | 4.79 | > 80 µM (inactive) | < 4.10 | 6.76 | 5.85 | 5.57 | 5.41 | 5.41 |  | < 4.10 |  | > 80 µM (inactive) |  |  | 55.2% | 
CCOC(=O)CSc1cccc2cccnc12 | 5.35 | 5.26 | 5.17 | 5.29 | > 80 µM (inactive) | < 4.10 | 5.33 | 5.28 | 5.23 | 5.15 | 5.23 | 5.40 | 5.09 | 5.37 |  |  |  |  | 
O=C(C#Cc1ccccc1)c1ccc([N+](=O)[O-])cc1 | 5.36 | 5.34 | 5.26 | 5.43 | > 80 µM (inactive) | < 4.10 | 5.84 | 5.76 | 5.70 | 5.57 | 5.58 |  | 5.59 |  |  |  |  | 131% | 
O=C1C=CC(=O)N1c1cccc(-c2ccccc2)c1 |  | 4.64 | 4.64 | < 4.10 | > 80 µM (inactive) | < 4.10 | 4.33 | 4.33 | < 4.10 | 5.01 | 5.02 |  | < 4.10 |  |  |  |  | 21.2% | 
CNc1ccc2oc(C[C@H]3O[C@@]4(CC[C@H]3C)O[C@H]([C@H](C)C(=O)c3ccc[nH]3)[C@H](C)C[C@H]4C)nc2c1C(=O)O | 4.96 | 4.93 | 4.91 | < 4.10 | > 80 µM (inactive) | < 4.10 | 5.21 | 5.21 | 5.21 | 5.23 | 5.07 | 5.19 | 5.15 | 4.82 |  |  |  |  | 
COc1cc(/C=C/c2ccc3c(Br)cc(Br)c(O)c3n2)ccc1O | 4.69 | 4.63 | 4.73 | 4.49 | > 80 µM (inactive) | < 4.10 | 4.90 | 4.92 | 4.94 |  | 4.90 | 5.06 | 4.93 | 4.90 |  |  | inactive |  | 
Cc1cccc(C(=O)Nc2ccc(C(=O)/C=C/c3ccncc3)cc2)c1 |  | < 4.10 | < 4.10 | < 4.10 | > 80 µM (inactive) | < 4.10 |  | < 4.10 | < 4.10 |  | < 4.10 |  | < 4.10 |  |  |  | > 80 µM (inactive) | -26.4% | 
COc1ccc(N2C(=O)CC(Sc3nnnn3-c3ccc(F)cc3)C2=O)cc1 (stereo not given) | 5.00 | 5.00 | < 4.10 | < 4.10 | > 80 µM (inactive) | < 4.10 | 5.08 | 5.02 | 4.97 |  | < 4.10 |  | < 4.10 |  |  |  | > 80 µM (inactive) | -50.3% | 
N#CC(C#N)=C1C=CC=CN1/C(=C\c1ccco1)C(=O)c1ccccc1 | 5.32 | 5.41 | 5.49 | 5.43 | > 80 µM (inactive) | < 4.10 | 5.54 | 5.53 | 5.52 | 5.45 | 5.43 | 5.40 | 5.44 | 5.42 |  |  |  |  | 
CS(=O)(=O)c1ccc(C(=O)OCc2nnc(-c3ccccc3)o2)cc1[N+](=O)[O-] | 5.35 | 5.41 | 5.49 | 5.41 | > 80 µM (inactive) | < 4.10 | 5.14 | 5.07 | 5.01 | 5.42 | 5.50 | 5.49 | 5.44 | 5.69 |  |  |  |  | 
